Data reported in patent publication US20240368168A1, “SARM1 ENZYME ACTIVITY INHIBITOR AND APPLICATION THEREOF” (ARTIVILA BIOPHARMA, priority 2021, published 2024).

Assays:
[1] = biological target: T1, dN-SARM1 protein (Homo sapiens, UniProt Q6SZW1); assay: In vitro biochemical assay for inhibiting SARM1 enzymatic activity (% inhibition rate), PC6 fluorescence method; settings: 20 μM compound; 50 μM NAD, 50 μM PC6, 50 μM NMN activator
T1 construct: the N-terminal mitochondrial localization signal peptide of SARM1 was removed
T1 sequence (Q6SZW1 28-724): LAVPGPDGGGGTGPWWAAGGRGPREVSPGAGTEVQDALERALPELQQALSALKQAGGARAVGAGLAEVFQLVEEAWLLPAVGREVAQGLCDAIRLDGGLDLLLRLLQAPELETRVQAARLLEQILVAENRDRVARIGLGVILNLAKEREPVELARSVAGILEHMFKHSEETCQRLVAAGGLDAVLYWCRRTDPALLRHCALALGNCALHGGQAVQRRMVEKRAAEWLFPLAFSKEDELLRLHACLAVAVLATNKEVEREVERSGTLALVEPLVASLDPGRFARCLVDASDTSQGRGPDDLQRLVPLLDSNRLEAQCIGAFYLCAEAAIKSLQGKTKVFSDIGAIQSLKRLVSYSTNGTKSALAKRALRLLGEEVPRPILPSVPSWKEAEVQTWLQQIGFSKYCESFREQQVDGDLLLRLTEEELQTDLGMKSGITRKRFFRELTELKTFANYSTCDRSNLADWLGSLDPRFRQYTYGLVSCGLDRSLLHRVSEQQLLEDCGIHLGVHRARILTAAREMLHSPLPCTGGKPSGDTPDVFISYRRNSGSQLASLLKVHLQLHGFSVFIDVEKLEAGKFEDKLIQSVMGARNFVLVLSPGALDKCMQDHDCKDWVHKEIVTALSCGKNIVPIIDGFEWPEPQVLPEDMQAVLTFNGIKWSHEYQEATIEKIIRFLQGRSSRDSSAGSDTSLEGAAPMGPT
Protocol: The compounds were subjected to PC6 fluorescence method measurement [Chinese Patent 202010528147.3] using the dN-SARM1 protein obtained through “(4) Protein extraction” in “Expression and purification of SARM1 protein” in the above biological activity example 1.
First, 0.05 μg/ml dN-SARM1 and 20 μM compound were incubated in 50 mM Tris-HCl (pH 7.5) solution for 10 min, and then added with 50 μM NAD and 50 μM PC6 as substrate and 50 μM NMN as activator for 30 minutes of reaction at room temperature. The concentration of each component was the final concentration in the reaction system.
During the reaction, PC6 fluorescence spectrum dynamics were detected by a microplate reader, wherein the excitation wavelength and emission wavelength for detection were 390 nm and 520 nm, respectively. Finally, the reaction rate was used to express the activity of the protein. The higher the reaction rate, the stronger the activity of the protein and the lower the inhibitory efficiency of the compound.

[2] = biological target: T1, dN-SARM1 protein; assay: In vitro biochemical assay for inhibiting SARM1 enzymatic activity (IC50), PC6 fluorescence method; settings: 50 μM NAD, 50 μM PC6, 50 μM NMN activator
How it was run: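 Activity read as the rate of PC6 fluorescence change (390 nm excitation, 520 nm emission) over a 30 min room-temperature reaction containing final 50 μM each of NAD, PC6 and NMN activator. Enzyme, 0.05 μg/ml dN-SARM1 in 50 mM Tris-HCl pH 7.5, first incubated 10 min with compound diluted serially from 200 μM; IC50 calculated.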

Row | inhibition at 20 µM [1] [%] | IC50 [2] [nM] | Structure (SMILES)
1 | > 90 | 1000 to 10000 | COCCOCC(=O)Nc1cccc(-c2cnc3ccc(NC(=O)COC)cn23)c1 [Compound 131]
2 | > 90 | < 1000 | COc1ccn2c(-c3ccccc3)cnc2c1 [Compound 26]
3 | > 90 | 1000 to 10000 | CN(C(=O)OC(C)(C)C)c1ccc2ncc(-c3cccc(NC(=O)C4COC4)c3)n2c1 [Compound 150]
4 | > 90 | 1000 to 10000 | COCCOCC(=O)Nc1cccc(-c2cnc3ccc(CNC(=O)C(C)(C)C)cn23)c1 [Compound 146]
5 | > 90 | < 1000 | CNc1ccc2ncc(-c3cccc(OCC4CCOCC4)c3)n2c1 [Compound 154]
6 | > 90 | < 1000 | COCCOCC(=O)Nc1cccc(-c2cnc3ccc(CNC(=O)OC(C)(C)C)cn23)c1 [Compound 145]
7 | > 90 | < 1000 | O=C(Nc1cccc(-c2cnc3ccc(N4CCOCC4)cn23)c1)C1CCOCC1 [Compound 57]
8 | > 90 | 1000 to 10000 | COCCOCC(=O)Nc1cccc(-c2cnc3ccc(N)cn23)c1 [Compound 128, N-(3-(6-aminoimidazo[1,2-a]pyridin-3-yl)phenyl)-2-(2-methoxyethoxy)acetamide]
9 | 50 to 89 | < 1000 | COCCOCC(=O)Nc1cccc(-c2cnc3ccc(NC(=O)OC(C)(C)C)cn23)c1 [Compound 58, tert-butyl (3-(3-(2-(2-methoxyethoxy)acetamido)phenyl)imidazo[1,2-a]pyridin-6-yl)carbamate]
10 | > 90 |  | CN(C(=O)OC(C)(C)C)c1ccc2ncc(-c3cccc(NC(=O)CN4CCC(O)C4)c3)n2c1 (stereo not shown) [Compound 148]
11 | 50 to 89 |  | CN(C(=O)OC(C)(C)C)c1ccc2ncc(-c3ccccc3)n2n1 [Compound 95, tert-butyl methyl(3-phenylimidazo[1,2-b]pyridazin-6-yl) carbamate]
12 | > 90 | < 1000 | COCCOCC(=O)Nc1cccc(-c2cnc3ccc(N4CCOCC4)cn23)c1 [Compound 56]
13 | > 90 | < 1000 | Cc1ccc2ncc(-c3cccc(NC(=O)C4CCOCC4)c3)n2c1 [Compound 54]
14 | > 90 | 1000 to 10000 | CCOC(=O)CCC(=O)Nc1cccc(-c2cnc3ccc(N(C)C(=O)OC(C)(C)C)cn23)c1 [Compound 151]
15 | > 90 | < 1000 | CNc1ccc2ncc(-c3cccc(S(=O)(=O)NC4CCOCC4)c3)n2c1 [Compound 110, 3-(6-(methylamino)imidazo[1,2-a]pyridin-3-yl)-N-(tetrahydro-2H-pyran-4-yl)benzenesulfonamide]
16 | 50 to 89 |  | CC(C)(C)OC(=O)Nc1ccc2ncc(-c3ccc(C(=O)NC4CCOCC4)s3)n2c1 [Compound 127, tert-butyl (3-(5-((tetrahydro-2H-pyran-4-yl)carbamoyl)thiophen-2-yl)imidazo[1,2-a]pyridin-6-yl)carbamate]
17 | > 90 | 1000 to 10000 | CC(C)(C)OC(=O)Nc1ccc2ncc(-c3cc(C(=O)NC4CCOCC4)cs3)n2c1 [Compound 125, tert-butyl (3-(4-((tetrahydro-2H-pyran-4-yl)carbamoyl)thiophen-2-yl)imidazo[1,2-a]pyridin-6-yl) carbamate]
18 | > 90 | 1000 to 10000 | CNc1ccc2ncc(-c3cccc(NC(=O)COCCOC)c3)n2c1 [Compound 77]
19 | > 90 | 1000 to 10000 | CN(C(=O)OC(C)(C)C)c1ccc2ncc(-c3cccc(NC(=O)NC[C@@H]4CCO4)c3)n2c1 [Compound 152]
20 | > 90 | < 1000 | CC(C)(C)OC(=O)NCc1ccc2ncc(-c3cccc(N)c3)n2c1 [Compound 144]

Row | inhibition at 20 µM [1] [%] | IC50 [2] [nM] | Structure (SMILES)
21 | 50 to 89 |  | CC(C)(C)OC(=O)Nc1ccc2ncc(-c3ccccc3)n2n1 [Compound 22]
22 | 50 to 89 | 1000 to 10000 | COc1cccn2c(-c3ccccc3)cnc12 [Compound 27]
23 | 50 to 89 |  | COCCOCCNC(=O)c1cccc(-c2cnc3ccc(N(C)C(=O)OC(C)(C)C)cn23)c1 [Compound 133, tert-butyl (3-(3-((2-(2-methoxyethoxy)ethyl)carbamoyl)phenyl)imidazo[1,2-a]pyridin-6-yl)(methyl)carbamate]
24 | > 90 | 1000 to 10000 | CN(C(=O)OC(C)(C)C)c1ccc2ncc(-c3ccnc(N)c3)n2c1 [Compound 41]
25 | > 90 | 1000 to 10000 | CN(C(=O)OC(C)(C)C)c1ccc2ncc(-c3cccc(NC(=O)C4CCOC4)c3)n2c1 (stereo not shown) [Compound 149]
26 | > 90 | 1000 to 10000 | CC(C)(C)OC(=O)NCc1ccc2ncc(I)n2c1 [Compound 143]
27 | > 90 | 1000 to 10000 | CNc1ccc2ncc(-c3cccc(OCCOCCOC)c3)n2c1 [Compound 153]
28 | > 90 | 1000 to 10000 | CC(C)(C)Oc1ccc2ncc(-c3cccc(NC(=O)C4CCOCC4)c3)n2c1 [Compound 55]
29 | > 90 | < 1000 | CNc1ccc2ncc(-c3cccc(C(=O)NCCOCCOC)c3)n2c1 [Compound 134]
30 | > 90 |  | CN(C(=O)OC(C)(C)C)c1ccc2ncc(-c3cccc(NC(=O)CN4CCOCC4)c3)n2c1 [Compound 147]
31 | 50 to 89 |  | CNc1ccc2ncc(-c3cccc(S(=O)(=O)NCCOCCOC)c3)n2c1 [Compound 109, N-(2-(2-methoxyethoxy)ethyl)-3-(6-(methylamino)imidazo[1,2-a]pyridin-3-yl)benzenesulfonamide]
32 | 50 to 89 | 1000 to 10000 | COCCOCCNS(=O)(=O)c1cccc(-c2cnc3ccc(N(C)C(=O)OC(C)(C)C)cn23)c1 [Compound 108, tert-butyl (3-(3-(N-(2-(2-methoxyethoxy)ethyl)sulfamoyl)phenyl)imidazo[1,2-a]pyridin-6-yl)(methyl)carbamate]
33 | > 90 | < 1000 | CNc1ccc2ncc(-c3cccc(C(=O)NC4CCOCC4)c3)n2c1 [Compound 136]
34 | > 90 | 1000 to 10000 | COCCOCC(=O)Nc1cccc(-c2cnc3ccc(C)cn23)c1 [Compound 53]
35 | 50 to 89 |  | CN1CCC(C(=O)Nc2cccc(-c3cnc4ccc(N(C)C(=O)OC(C)(C)C)cn34)c2)CC1 [Compound 48]
36 | 50 to 89 |  | Ic1cccc2ncc(I)n12 [Compound 28]
37 | > 90 | < 1000 | CN(C)c1ccc2ncc(-c3ccccc3)n2n1 [Compound 94, N,N-dimethyl-3-phenylimidazo[1,2-b]pyridazin-6-amine]
38 | > 90 | 1000 to 10000 | CCOC(=O)c1ccc2ncc(-c3ccccc3)n2c1 [Compound 24]
39 | 50 to 89 |  | CN(C(=O)OC(C)(C)C)c1ccc2ncc(-c3cccc(C(=O)NC4CCOCC4)c3)n2c1 [Compound 135]
40 | > 90 | 1000 to 10000 | CC(C)(C)OC(=O)Nc1ccc2ncc(-c3cccc(N)c3)n2c1 [Compound 46]

Row | Structure (SMILES) | inhibition at 20 µM [1] [%] | IC50 [2] [nM]
41 | COC(=O)c1csc(-c2cnc3ccc(NC(=O)OC(C)(C)C)cn23)c1 [Compound 124, methyl 5-(6-((tert-butoxycarbonyl)amino)imidazo[1,2-a]pyridin-3-yl)thiophene-3-carboxylate] | > 90 | 1000 to 10000
42 | CN1CCN(c2ccc3ncc(-c4ccccc4)n3c2)CC1 [Compound 37] | 50 to 89 | 1000 to 10000
43 | CN(C(=O)OC(C)(C)C)c1ccc2ncc(-c3cccc(C(=O)O)c3)n2c1 [Compound 132, 3-(6-((tert-butoxycarbonyl)(methyl)amino)imidazo[1,2-a]pyridin-3-yl)benzoic acid] | > 90 | 1000 to 10000
